Patent US11434242B2, “Dopamine-b-hydroxylase inhibitors” (BIAL-PORTELA & Cª, S.A., priority 2017, dated 2022)
Marks after values point to notes of the source that are not given here.

Molecular target: T1, Dopamine beta hydroxylase (Homo sapiens, UniProt P09172)
T1 construct: 125 μl of plasma; tissue Instituto Português do Sangue Transplantação; host or cells: human plasma from healthy donors
T1 sequence (P09172 40-617 limits assumed): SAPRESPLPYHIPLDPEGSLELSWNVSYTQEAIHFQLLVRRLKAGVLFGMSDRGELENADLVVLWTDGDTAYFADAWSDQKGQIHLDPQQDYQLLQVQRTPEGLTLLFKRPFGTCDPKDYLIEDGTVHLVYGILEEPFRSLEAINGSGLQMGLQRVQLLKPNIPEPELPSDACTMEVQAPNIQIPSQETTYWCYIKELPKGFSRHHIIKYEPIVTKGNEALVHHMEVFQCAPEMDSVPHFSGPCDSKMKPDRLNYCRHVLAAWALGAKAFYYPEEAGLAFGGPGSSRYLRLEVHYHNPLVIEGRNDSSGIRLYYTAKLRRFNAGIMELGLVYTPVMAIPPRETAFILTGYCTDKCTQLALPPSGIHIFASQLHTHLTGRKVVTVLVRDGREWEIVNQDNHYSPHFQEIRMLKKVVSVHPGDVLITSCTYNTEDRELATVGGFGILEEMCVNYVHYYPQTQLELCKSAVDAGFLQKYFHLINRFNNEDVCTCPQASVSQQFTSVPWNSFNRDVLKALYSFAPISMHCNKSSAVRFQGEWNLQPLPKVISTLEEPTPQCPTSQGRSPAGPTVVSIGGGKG
Assay: Dopamine beta hydroxylase activity in human plasma
Assay type: biochemical
Settings: for Plasma (0.01 μM), activity in % of control / Plasma (0.01 μM), activity in % of control, re-test (asterisked): inhibitor 0.01 μM; for Plasma (0.1 μM), activity in % of control / Plasma (0.1 μM), activity in % of control, re-test (asterisked): inhibitor 0.1 μM; for Plasma (0.01 μM), activity in % of control, re-test (asterisked) / Plasma (0.1 μM), activity in % of control, re-test (asterisked): re-tested under the same experimental conditions, asterisked data believed to be correct
How it was run: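 Healthy-donor human plasma pre-incubated 10 min at 37° C with compound at final 10, 100 or 1000 nM in pH 5.0 acetate buffer with ascorbate, fumarate, pargyline, N-ethylmaleimide, catalase and copper sulfate. Tyramine substrate then added for 45 min; octopamine formed was isolated by SCX cartridge, periodate-converted and read at 330 nm; activity given as % control.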

Row | SMILES | Plasma (0.01 μM), activity in % of control | Plasma (0.1 μM), activity in % of control | Plasma (0.01 μM), activity in % of control, re-test (asterisked) | Plasma (0.1 μM), activity in % of control, re-test (asterisked)
1 | CC(C)NC(=O)Cc1c2n(c(=S)n1C)C[C@@]1(c3cc(Cl)ccc3F)C[C@@H]21 [Example 303, 2-((5aS,6aR)-5a-(5-chloro-2-fluorophenyl)-2-methyl-3-thioxo-2,3,5,5a,6,6a-hexahydrocyclopropa[3,4]pyrrolo[1,2-c]imidazol-1-yl)-N-isopropylacetamide] | 79.3 % of control | 34.7 % of control | – | –
2 | Cn1c(CC(=O)NCC#N)c2n(c1=S)C[C@@]1(c3cc(Cl)ccc3F)C[C@@H]21 [Example 304, 2-((5aS,6aR)-5a-(5-chloro-2-fluorophenyl)-2-methyl-3-thioxo-2,3,5,5a,6,6a-hexahydrocyclopropa[3,4]pyrrolo[1,2-c]imidazol-1-yl)-N-(cyanomethyl)acetamide] | 51.9 % of control | 21.1 % of control | – | –
3 | Cn1c(CC(=O)NCC#N)c2n(c1=S)C[C@@]1(c3cc(Br)ccc3F)C[C@@H]21 [Example 305, 2-((5aS,6aR)-5a-(5-bromo-2-fluorophenyl)-2-methyl-3-thioxo-2,3,5,5a,6,6a-hexahydrocyclopropa[3,4]pyrrolo[1,2-c]imidazol-1-yl)-N-(cyanomethyl)acetamide] | 61.2 % of control | 12.2 % of control | – | –
4 | Cn1c(CC(=O)N2CCCC2)c2n(c1=S)C[C@@]1(c3cc(Cl)ccc3F)C[C@@H]21 [Example 309, 2-((5aS,6aR)-5a-(5-chloro-2-fluorophenyl)-2-methyl-3-thioxo-2,3,5,5a,6,6a-hexahydrocyclopropa[3,4]pyrrolo[1,2-c]imidazol-1-yl)-1-(pyrrolidin-1-yl)ethan-1-one] | 86.2 % of control | 38.8 % of control | – | –
5 | Cn1c(CC(=O)N2CCCC2)c2n(c1=S)C[C@@]1(c3cc(Br)ccc3F)C[C@@H]21 [Example 310, 2-((5aS,6aR)-5a-(5-bromo-2-fluorophenyl)-2-methyl-3-thioxo-2,3,5,5a,6,6a-hexahydrocyclopropa[3,4]pyrrolo[1,2-c]imidazol-1-yl)-1-(pyrrolidin-1-yl)ethan-1-one] | 65.9 % of control | 22.3 % of control | – | –
6 | Cn1c(CC(=O)N2CCCCC2)c2n(c1=S)C[C@@]1(c3cc(Br)ccc3F)C[C@@H]21 [Example 312, 2-((5aS,6aR)-5a-(5-bromo-2-fluorophenyl)-2-methyl-3-thioxo-2,3,5,5a,6,6a-hexahydrocyclopropa[3,4]pyrrolo[1,2-c]imidazol-1-yl)-1-(piperidin-1-yl)ethan-1-one] | 84.8 % of control | 51.7 % of control | 67.6* % of control | 15.0* % of control
7 | Cn1c(CC(=O)NC2CCOCC2)c2n(c1=S)C[C@@]1(c3cc(Cl)ccc3F)C[C@@H]21 [Example 313, 2-((5aS,6aR)-5a-(5-chloro-2-fluorophenyl)-2-methyl-3-thioxo-2,3,5,5a,6,6a-hexahydrocyclopropa[3,4]pyrrolo[1,2-c]imidazol-1-yl)-N-(tetrahydro-2H-pyran-4-yl)acetamide] | 37.6 % of control | 9.6 % of control | – | –
8 | Cn1c(CC(=O)NC2CCOCC2)c2n(c1=S)C[C@@]1(c3cc(Br)ccc3F)C[C@@H]21 [Example 314, 2-((5aS,6aR)-5a-(5-bromo-2-fluorophenyl)-2-methyl-3-thioxo-2,3,5,5a,6,6a-hexahydrocyclopropa[3,4]pyrrolo[1,2-c]imidazol-1-yl)-N-(tetrahydro-2H-pyran-4-yl)acetamide] | 80.2 % of control | 34.8 % of control | 41.9* % of control | 1.4* % of control
9 | Cn1c(CC(=O)NCC(F)(F)F)c2n(c1=S)C[C@@H](c1c(F)c(F)cc(F)c1F)C2 [Example 315, (R)-2-(2-methyl-6-(2,3,5,6-tetrafluorophenyl)-3-thioxo-2,5,6,7-tetrahydro-3H-pyrrolo[1,2-c]imidazol-1-yl)-N-(2,2,2-trifluoroethyl)acetamide] | 67.0 % of control | 17.0 % of control | 94.0* % of control | 53.3* % of control
10 | Cn1c(CC(=O)Nc2ncco2)c2n(c1=S)C[C@@H](c1c(F)c(F)cc(F)c1F)C2 [Example 316, (R)-2-(2-methyl-3-thioxo-6-(2,3,5,6-tetrafluorophenyl)-2,5,6,7-tetrahydro-3H-pyrrolo[1,2-c]imidazol-1-yl)-N-(oxazol-2-yl)acetamide] | 43.4 % of control | 4.5 % of control | 73.1* % of control | 16.6* % of control
11 | Cn1c(CCC(=O)N2CC3C(C2)C3(C)C)c2n(c1=S)C[C@@H](c1c(F)c(F)cc(F)c1F)C2 (stereo partly drawn) [Example 319, 1-(6,6-dimethyl-3-azabicyclo[3.1.0]hexan-3-yl)-3-((R)-2-methyl-6-(2,3,5,6-tetrafluorophenyl)-3-thioxo-2,5,6,7-tetrahydro-3H-pyrrolo[1,2-c]imidazol-1-yl)propan-1-one] | 67.9 % of control | 16.5 % of control | – | –
12 | Cn1c(CC(=O)N2CCNCC2)c2n(c1=S)C[C@@]1(c3cc(Cl)ccc3F)C[C@@H]21 [Example 320, 2-((5aS,6aR)-5a-(5-chloro-2-fluorophenyl)-2-methyl-3-thioxo-2,3,5,5a,6,6a-hexahydrocyclopropa[3,4]pyrrolo[1,2-c]imidazol-1-yl)-1-(piperazin-1-yl)ethan-1-one] | 90.3 % of control | 31.1 % of control | – | –

Now from value to compound:

Row | Plasma (0.01 μM), activity in % of control | Plasma (0.1 μM), activity in % of control | Plasma (0.01 μM), activity in % of control, re-test (asterisked) | Plasma (0.1 μM), activity in % of control, re-test (asterisked) | SMILES
13 | 70.6 % of control | 18.0 % of control | – | – | Cn1c(CC(=O)N[C@H]2CCOC2)c2n(c1=S)C[C@@]1(c3cc(Cl)ccc3F)C[C@@H]21 [Example 306, 2-((5aS,6aR)-5a-(5-chloro-2-fluorophenyl)-2-methyl-3-thioxo-2,3,5,5a,6,6a-hexahydrocyclopropa[3,4]pyrrolo[1,2-c]imidazol-1-yl)-N—((S)-tetrahydrofuran-3-yl)acetamide]
14 | 73.9 % of control | 33.0 % of control | – | – | O=C(Cc1[nH]c(=S)n2c1[C@@H]1C[C@]1(c1cc(Br)ccc1F)C2)N[C@@H]1CCOC1 [Example 307, 2-((5aS,6aR)-5a-(5-bromo-2-fluorophenyl)-3-thioxo-2,3,5,5a,6,6a-hexahydrocyclopropa[3,4]pyrrolo[1,2-c]imidazol-1-yl)-N—((R)-tetrahydrofuran-3-yl)acetamide]
15 | 64.2 % of control | 12.8 % of control | – | – | Cn1c(CC(=O)N[C@H]2CCOC2)c2n(c1=S)C[C@@]1(c3cc(Br)ccc3F)C[C@@H]21 [Example 308, 2-((5aS,6aR)-5a-(5-bromo-2-fluorophenyl)-2-methyl-3-thioxo-2,3,5,5a,6,6a-hexahydrocyclopropa[3,4]pyrrolo[1,2-c]imidazol-1-yl)-N—((S)-tetrahydrofuran-3-yl)acetamide]
16 | 87.2 % of control | 21.6 % of control | – | – | Cn1c(CC(=O)N2CCCCC2)c2n(c1=S)C[C@@]1(c3cc(Cl)ccc3F)C[C@@H]21 [Example 311, 2-((5aS,6aR)-5a-(5-chloro-2-fluorophenyl)-2-methyl-3-thioxo-2,3,5,5a,6,6a-hexahydrocyclopropa[3,4]pyrrolo[1,2-c]imidazol-1-yl)-1-(piperidin-1-yl)ethan-1-one]
17 | 45.6 % of control | 5.3 % of control | – | – | Cn1c(CC(=O)Nc2ncco2)c2n(c1=S)C[C@H](c1c(F)ccc(Cl)c1F)C2 [Example 317, (S)-2-(6-(3-chloro-2,6-difluorophenyl)-2-methyl-3-thioxo-2,5,6,7-tetrahydro-3H-pyrrolo[1,2-c]imidazol-1-yl)-N-(oxazol-2-yl)acetamide]
18 | 88.4 % of control | 61.4 % of control | – | – | Cn1c(CCC(=O)N2CCOCC2)c2n(c1=S)C[C@@H](c1c(F)c(F)cc(F)c1F)C2 [Example 318, (R)-3-(2-methyl-3-thioxo-6-(2,3,5,6-tetrafluorophenyl)-2,5,6,7-tetrahydro-3H-pyrrolo[1,2-c]imidazol-1-yl)-1-morpholinopropan-1-one]
